# Laboratory results: patent publication EP1289507B1, “USE OF AN ALDOSTERONE ANTAGONIST FOR THE TREATMENT OR PROPHYLAXIS OF ALDOSTERONE-MEDIATED PATHOGENIC EFFECTS” (priority 2000, dated 2001)
# System: aortas of New Zealand white rabbits on normal or 1 % cholesterol chow
# Assay: Endothelial function (isometric tension, superoxide generation) of aortas in diet induced atherosclerosis
# Type: in vivo
# Details: for % NTG (peak relaxation to nitroglycerin) / %Ach (peak relaxation to acetylcholine): eplerenone 50 mg/kg twice daily; for %Ach (peak relaxation to acetylcholine): 6 weeks; for O2 counts: lucigenin chemiluminescence
# Protocol: Methods: New Zealand white rabbits were randomized to four treatment groups. 32 Rabbits were placed on normal (NC) or 1 % cholesterol chow (HC) for a duration of 8 weeks. […] Rabbits were euthanized at the end of 8 weeks and the aortas extracted for isometric tension studies and estimation of superoxide (O2^-) generation in vessel segments by lucigenin chemiluminescence (250 µM). Vessels were preconstricted with phenylephrine (3 x 10^-7) to approximately 50% of peak constriction and dose responses to acetylcholine (Ach) and nitroglycerin (NTG) tested.
compound,measurement,setting,value
"COC(=O)[C@@H]1CC2=CC(=O)CC[C@]2(C)[C@@]23O[C@@H]2C[C@@]2(C)[C@@H](CC[C@@]24CCC(=O)O4)[C@H]13 [Eplerenone, Pregn-4-ene-7,21-dicarboxylic acid, 9,11-epoxy-17-hydroxy-3-oxo-, γ-lactone, methyl ester, (7α, 11α, 17β)-]",% NTG (peak relaxation to nitroglycerin),1 % cholesterol chow (HC),112±4%
same,%Ach (peak relaxation to acetylcholine),1 % cholesterol chow (HC),82±6 %
same,O2 counts,1 % cholesterol chow (HC),1400±504 per mg of dry weight
same,% NTG (peak relaxation to nitroglycerin),normal chow (NC),107±2%
same,%Ach (peak relaxation to acetylcholine),normal chow (NC),97±3%
same,O2 counts,normal chow (NC),1110±373 per mg of dry weight
